Assay results taken from the supplement of paper PMC10307832.

Legend:
Assay in all cases: relative viability (nuclei count vs DMSO), 5 days (fraction); higher = more cells survive
[1] = compound: C1CSC2=C(C(=O)N1)SC3=C2C=C(C=C3)O [kb NB 142-70] + CC(C)C[C@H](NC(=O)[C@H](Cc1ccccc1)NC(=O)c1cnccn1)B(O)O [Bortezomib] (partner 0.002 µM)
Outline: (§1)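 Relative viability divides the nuclei count in treated wells by that in vehicle wells. Lung cancer cell lines were seeded in 1536-well plates, dosed by pin tool the next day, and fixed and stained after 5 days in one step with final 0.05% Triton X-100, 1% formaldehyde and 1 ug/ml Hoechst. Dosing was a single drug or a fixed anchor-drug dose plus five library-drug doses (not always all listed) in √10 steps, and values are medians of duplicate plates imaged at 4×.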

[2] = compound: C1CSC2=C(C(=O)N1)SC3=C2C=C(C=C3)O [kb NB 142-70] + CC1(C)CCC(c2ccc(Cl)cc2)=C(CN2CCN(c3ccc(C(=O)NS(=O)(=O)c4ccc(N[C@H](CCN5CCOCC5)CSc5ccccc5)c(S(=O)(=O)C(F)(F)F)c4)cc3)CC2)C1 [Navitoclax] (partner 0.5 µM)
Outline: as §1

[3] = compound: C1CSC2=C(C(=O)N1)SC3=C2C=C(C=C3)O [kb NB 142-70] + Nc1nc2[nH]cc(CCc3ccc(C(=O)N[C@@H](CCC(=O)O)C(=O)O)cc3)c2c(=O)[nH]1 [Pemetrexed] (partner 0.2 µM)
Outline: as §1

[4] = compound: NCC(=O)Nc1ccc(-n2nc(C(F)(F)F)cc2-c2ccc3c(ccc4ccccc43)c2)cc1 + N=C(N)NC(=N)NCCc1ccccc1 [Phenformin] (partner 250 µM)
Outline: as §1

[5] = compound: NCC(=O)Nc1ccc(-n2nc(C(F)(F)F)cc2-c2ccc3c(ccc4ccccc43)c2)cc1 + Nc1nc2[nH]cc(CCc3ccc(C(=O)N[C@@H](CCC(=O)O)C(=O)O)cc3)c2c(=O)[nH]1 [Pemetrexed] (partner 0.2 µM)
Outline: as §1

| Cell Line | relative viability ([1]; first compound 0.1 µM) | relative viability ([1]; first compound 1 µM) | relative viability ([1]; first compound 3.162 µM) | relative viability ([2]; first compound 0.1 µM) | relative viability ([2]; first compound 1 µM) | relative viability ([2]; first compound 3.162 µM) | relative viability ([3]; first compound 0.1 µM) | relative viability ([3]; first compound 1 µM) | relative viability ([3]; first compound 3.162 µM) | relative viability ([4]; first compound 0.02 µM) | relative viability ([4]; first compound 0.06325 µM) | relative viability ([4]; first compound 0.2 µM) | relative viability ([4]; first compound 0.6325 µM) | relative viability ([4]; first compound 2 µM) | relative viability ([5]; first compound 0.02 µM) | relative viability ([5]; first compound 0.06325 µM) | relative viability ([5]; first compound 0.2 µM) | relative viability ([5]; first compound 0.6325 µM) | relative viability ([5]; first compound 2 µM) |
| --- | --- | --- | --- | --- | --- | --- | --- | --- | --- | --- | --- | --- | --- | --- | --- | --- | --- | --- | --- |
| HCC-15 | 0.972 | 1.1 | 1.1 | 0.683 | 0.683 | 0.609 | 0.227 | 0.238 | 0.227 | 0.438 | 0.497 | 0.476 | 0.497 | 0.506 | 0.209 | 0.209 | 0.212 | 0.217 | 0.229 |
| IA-LM | 0.765 | 1.06 | 0.647 | 0.807 | 0.843 | 0.651 |  |  |  |  |  |  |  |  |  |  |  |  |  |
| LCLC-103H | 1.17 | 1.09 | 1.07 |  |  |  | 0.447 | 0.453 | 0.471 | 0.344 | 0.331 | 0.332 | 0.327 | 0.315 | 0.406 | 0.481 | 0.434 | 0.447 | 0.437 |
| LK-2 |  |  |  | 0.879 | 0.723 | 0.464 | 0.327 | 0.215 | 0.224 | 0.31 | 0.638 | 0.425 | 0.496 | 0.435 | 0.295 | 0.207 | 0.294 | 0.256 | 0.217 |
| NCI-H358 |  |  |  |  |  |  | 0.175 | 0.141 | 0.114 | 0.335 | 0.319 | 0.293 | 0.365 | 0.343 | 0.168 | 0.164 | 0.179 | 0.193 | 0.185 |
| NCI-H522 |  |  |  |  |  |  | 1.03 | 0.871 | 0.745 |  | 0.66 | 0.585 | 0.664 | 0.651 | 0.968 | 0.973 | 0.874 | 0.86 | 1.07 |
| NCI-H650 | 0.845 | 0.719 | 0.561 |  |  |  | 1.07 | 1.03 | 0.843 | 0.422 | 0.44 | 0.48 | 0.379 | 0.474 | 0.907 | 0.9 | 0.896 | 0.872 | 0.913 |
| NCI-H661 | 0.808 | 0.805 | 0.802 |  |  |  | 0.967 | 0.867 | 0.856 | 0.267 | 0.259 | 0.268 | 0.295 | 0.27 | 0.882 | 0.954 | 0.929 | 0.915 | 0.907 |
| NCI-H727 | 0.897 | 1.1 | 1.02 | 0.522 | 0.397 | 0.263 |  |  |  | 0.63 | 0.606 | 0.561 | 0.41 | 0.728 |  |  |  |  |  |
| NCI-H1299 | 1.01 | 1.07 | 1.05 | 1.07 | 1.13 | 1.1 |  |  |  |  |  |  |  |  |  |  |  |  |  |
| NCI-H1395 |  |  |  | 1.26 | 1.23 | 0.826 | 0.915 | 0.872 | 0.833 | 0.5 | 0.422 | 0.434 | 0.469 | 0.475 | 0.876 | 0.896 | 0.969 | 0.8 | 0.894 |
| NCI-H1563 | 0.921 | 0.84 | 0.956 |  |  |  | 0.864 | 0.961 | 0.774 | 0.606 | 0.664 | 0.658 | 0.633 | 0.712 | 0.801 | 0.81 | 0.702 | 0.722 | 0.737 |
| NCI-H1623 |  |  |  |  |  |  |  |  |  | 0.604 | 0.671 | 0.6 | 0.577 | 0.555 |  |  |  |  |  |
| NCI-H1648 |  |  |  |  |  |  | 0.731 | 0.763 | 0.932 |  |  |  |  |  | 0.625 | 0.636 | 0.647 | 0.706 | 0.687 |
| NCI-H1703 | 0.255 | 0.361 | 0.209 | 1.04 | 1.05 | 0.93 |  |  |  |  |  |  |  |  |  |  |  |  |  |
| NCI-H1793 |  |  |  | 0.45 | 0.455 | 0.24 | 0.73 | 0.902 | 0.609 | 0.258 | 0.376 | 0.412 | 0.392 | 0.422 | 0.907 | 1.01 | 0.827 | 0.949 | 0.891 |
| NCI-H1944 |  |  |  | 1.07 | 1.05 | 0.973 | 0.633 | 0.757 | 0.665 | 0.191 | 0.233 | 0.204 | 0.201 | 0.207 | 0.609 | 0.731 | 0.642 | 0.553 | 0.575 |
| NCI-H2170 |  |  |  | 0.564 | 0.674 | 0.432 | 0.273 | 0.296 | 0.333 | 0.397 | 0.446 | 0.429 | 0.438 | 0.457 | 0.251 | 0.262 | 0.239 | 0.265 | 0.269 |
| NCI-H2342 |  |  |  |  |  |  | 0.781 | 0.774 | 0.697 | 0.685 | 0.582 | 0.733 | 0.515 | 0.537 | 0.796 | 0.757 | 0.764 | 0.762 | 0.812 |
| SK-MES-1 |  |  |  | 1.21 | 1.27 | 0.658 | 1 | 1.11 | 0.548 | 0.707 | 0.705 | 0.662 | 0.666 | 0.704 | 0.911 | 0.919 | 1.05 | 0.85 | 1.08 |
| SW 900 |  |  |  |  |  |  | 0.451 | 0.523 | 0.468 |  | 0.729 | 0.599 | 0.587 | 0.661 | 0.501 | 0.495 | 0.453 | 0.508 | 0.495 |
